Laboratory results: a melting point compilation (Tetko et al.; mined from patent text by program, amines drawn as free bases though some values may be those of a salt)

SMILES | melting point [°C]
FC(F)c1nc2ccccc2n1-c1nc(-c2cncnc2)cc(N2CCOCC2)n1 | 209 to 211
Cn1c(NCCOS(C)(=O)=O)cc(=O)n(C)c1=O | 169 to 170
ONC(CCc1ccccc1)CCc1ccccc1 | 54 to 55
COc1cc(C(=O)O)cc(C(F)(F)F)c1 | 131 to 135
CCN1CCN(CCCOc2cc3ncc(C#N)c(Nc4ccc(Sc5nccn5C)c(Cl)c4)c3cc2OCCOC)CC1 | 188 to 190
CCOC(=O)[C@H](CCSC)NC(=O)C1(Br)SC=C(Br)C1Br (stereo partly drawn) | 80 to 82
O=C1C2=C(SCCO2)C(=O)N1c1ccc(Cl)cn1 | 152
CC(Oc1ccc(Oc2ccc3cc(Cl)ccc3n2)cc1)C(=O)Nc1ccc(C(F)(F)F)cc1 (stereo not drawn) | 142 to 146
CC=CCNc1ccc(Oc2nc(OC)cc(OC)n2)c(C(=O)OC)n1 | 82 to 85
COc1cccc2c1C[C@H]1C[C@@H](CN3CCC(NC(=O)C(c4ccccc4)c4ccccc4)CC3)CN(C)[C@@H]1C2 | 219 to 222
CCCCCCCCCCCCCCCCOCCOCCOC(=O)NCc1ccccn1 | 57 to 59
Oc1cccc2ccc(C=Cc3ccccc3)nc12 | 70 to 72
CN1Cc2c(Cl)ncn2-c2ccccc2C1=O | 193 to 194
COc1ccc2nc(C)sc2c1N | 117 to 119
CC(=O)Oc1ccc(-c2cnc(N)c(Cc3ccccc3)n2)cc1 | 184 to 186
CNS(=O)(=O)c1ccccc1Nc1nc(Nc2ccc3c(c2)CCCC(=O)N3CC(=O)OC)ncc1Cl | 237 to 239
C=C(C)C=COCC1CCn2c(nc3ccccc32)S1 (stereo not drawn) | 56 to 60
CCCN(C(=O)n1ccnc1)c1ccccc1Cl | 75.5 to 76.5
CCCCCCCCCCCCCCCCOc1cc(CO)cc(CO)c1 | 90
S=C(SCc1ccccc1)N1CC2CCC(CC2)C1 | 98 to 99
O=C(NCCCn1ccnc1)Nc1cccc(C(F)(F)F)c1 | 105 to 108
COC(=O)c1cc(C(=O)NCC(=O)O)cc([N+](=O)[O-])c1 | 142 to 143
CCOC(=O)c1cn(C(=O)OCC(C)C)c2c(COC(C)=O)cc(C)cc2c1=O | 101 to 103

SMILES | melting point [°C]
CCCCCCCCCCCCCCCCOCCO | 42 to 44
CCCCCCOc1cc(C(=O)O)cc([N+](=O)[O-])c1C(=O)c1ccccc1 | 165 to 166
CS(=O)CCC(=N)NS(N)(=O)=O (stereo not drawn) | 141 to 144
c1ccc2c(c1)Cc1ccccc1N1CCCN=C21 | 139 to 141
CCCc1c(N)c(N)cc2c(=O)cc(C(=O)OC)oc12 | 221 to 222
COC(=O)c1cc(-n2c(OC)nc(C(F)(F)F)cc2=O)c(F)cc1Cl | 115 to 117
COc1cccc(C=CC2=NN(C(C)=O)C(C)Cc3cc4c(cc32)OCO4)c1OC (stereo not drawn) | 125 to 128
O=C(O)C(Cc1ccccc1)Oc1c(Br)cc(-c2c(Br)ccc3sc4ccccc4c23)cc1Br (stereo not drawn) | 98 to 100
CCCCNC(=O)NS(=O)(=O)c1ccccc1S(=O)(=O)C(C)C | 164 to 166
CCOC(=O)c1c(C(F)(F)F)nc(C(F)(F)F)c(C(=O)OC)c1N1CCCC1 | 68.5 to 70
CN1CCN(C(=O)OC2C3=C(SCCS3)C(=O)N2c2ccccn2)CC1 (stereo not drawn) | 145
COc1cc(OC)nc(OC(C(=O)O)C(C)(c2ccccc2)c2ccccc2)n1 (stereo not drawn) | 229 to 234
Cc1c(C)c(C(=O)O)c(C)c(C)c1C(=O)O | > 300
CCCCCCCCCCCCCCCC(=O)OC[C@H](O)COC(C)=O | 37 to 37.5
O=C1c2ccccc2C(=O)N1OS(=O)(=O)c1ccc2ccccc2c1 | 223 to 225
COc1cc2ncc(OC3CC4CC3C(O)C4O)nc2cc1OC (stereo not drawn) | 85 to 88
N#CCC(=NC#N)N1CCCC1 | 45
COC(=O)c1c(C)[nH]c(C)c1C1=CC(=O)c2cccc(O)c2C1=O | 98 to 99
CCNC(=S)NNC(=O)OC | 117
N#Cc1cc(N2CCN(CCCCCC(=O)N3Cc4ccccc4C3)CC2)cc(C(F)(F)F)c1 | 128
CC(C)NC1CN(c2c(F)cc3c(=O)c(C(=O)O)cn(-c4nc(N)c(F)cc4F)c3c2Br)C1 | > 203
CCCCC(C(=O)OC)(C(=O)OC)c1nc(C)nc2c1c(SC)nn2-c1c(Cl)cc(Cl)cc1Cl | 146 to 152
CCOC(=O)CCNC(=O)N1CCc2cc(S(=O)(=O)N3CCN(c4cccc(Cl)c4)CC3)ccc21 | 162

SMILES | melting point [°C]
COc1ccc(NC(=O)N2CCc3cc(F)c(Cl)cc32)cc1N1CCN(C)CC1 | 177 to 180
Cc1ccc(NC(=O)c2ccc(CN3CCN(C)CC3)c(C(F)F)c2)cc1Nc1nccc(-c2cncnc2)n1 | 206 to 207
CC(C)=CCC/C(C)=C/Cn1c(CO)nc2ccccc21 | 120 to 123
Cc1ccc(NC(=O)c2ccc(CN3CC[N+](C)([O-])CC3)cc2)cc1Nc1nccc(-c2cccnc2)n1 | 154 to 158
O=C(Cn1ccnc1)CS(=O)(=O)c1ccccc1 | 137 to 140
CC#CCc1c(C)nc2cc(C)nn2c1N | 215 to 219
CCOC(=O)c1c(C)c(C(=O)C(C#N)C(=O)Nc2ccccc2)n(C)c1C (stereo not drawn) | 164 to 166
Cc1ccc2c(c1)nc(C)c(=O)n2-c1ccc(Cl)cc1 | 223 to 225
C=CCc1cc(C(=O)OC)ccc1O | 78 to 82
CN1CCN(c2cc3c(cc2F)c(=O)c(C(=O)O)cn3C2COC2)CC1 | 178 to 180
CCOc1ccc(C2=NN(c3ccc(S(=O)(=O)O)cc3)C(=O)[C@H]3CC=CC[C@@H]23)cc1OCC (relative stereo) | 65 to 69
O=C(O)CCC(=O)c1ccc(-n2cncn2)cc1 | 234 to 235
N=C(N)NC(=O)Cc1c(-c2ccccc2)cccc1-c1ccc2ccccc2c1 | 36.8 to 36.9
c1ccc(CNCCOc2ccc3ccccc3c2)cc1 | 94
CCOC(=O)C(=NOC)c1noc(C(Cl)(Cl)Cl)n1 | 143 to 146
CC(C)(C)OC(=O)N[C@@H](C(=O)N1CCC[C@H]1C(=O)NC1CCc2n[nH]cc2C1)C(c1ccccc1)c1ccccc1 (stereo partly drawn) | 119 to 122
COc1cc(C)c(C(=O)c2c(Cl)cnc(Cl)c2Cl)c(OC)c1OC | 60 to 61
COc1ccc2c(c1)NC(C)(C)C=C2C | 67 to 69
CCOC(=O)CC1c2cccn2S(=O)(=O)c2ccccc2N1C(=O)c1ccccc1 (stereo not drawn) | 178 to 181
COC(=O)Nc1nc(C)c(-c2nc3ccccc3c(=O)n2-c2ccc(Cl)cc2)s1 | > 275
Cc1ccc(-c2ccnc3c(C(=O)c4cccs4)cnn23)cc1NC(=O)CC(C)C | 185 to 187
O=C1OC(c2ccccc2)(c2ccccc2)C2CN(c3nc4ccccc4o3)CCN12 (stereo not drawn) | 260
CN1CCN(Cc2ccc(Cl)nc2)C1=N[N+](=O)[O-] | 165 to 167

The remaining lines, values ahead:

melting point [°C] | SMILES
68 to 70 | Oc1cnccc1CCCOc1cccnc1Oc1cccc(F)c1
249 to 251 | CCOC(=O)c1nc2ccc(Cl)cc2c(=O)[nH]1
79 to 81 | BrCCCCCCOc1ccc(C2=NCCO2)cc1
157 | CC(Cc1ccc(Cl)cc1Cl)NC(=O)c1cn(C)nc1C(F)F (stereo not drawn)
55 to 60 | O=S(=O)(c1ccccc1)c1c[nH]c2ccc(CCO)cc12
148 to 149 | CS(=O)c1ccc(C2=C(c3cccc(F)c3)C(=O)C(C)(C)O2)cc1F (stereo not drawn)
194 to 195 | O=C1NC(CCc2cc(C(F)(F)F)cc(C(F)(F)F)c2)C(Cc2c[nH]c3ccccc23)N1 (stereo not drawn)
275 | Cc1c(O)ccc2c(=O)c(-c3ccc(Cl)cc3)coc12
199 | N#CCOc1ccc(CN2C(=O)c3cccc(NC(=O)c4ccc(Cl)s4)c3C2=O)cc1
218 to 221 | Cc1cc(-c2sc(N3CCN(Cc4ccc(F)cc4)C3=O)nc2C)n[nH]1
64 to 67 | CC(C)(C)OC(=O)C1=Cc2cc(OCc3ccccc3)ccc2OC1
147 to 148 | COc1nn(-c2ccc(C=O)cc2)nc1Cl
158 to 159 | CN(C)CCN1C(=O)C(NC(=O)c2ccc(NS(C)(=O)=O)cc2)C(C)(C)SC1=S (stereo not drawn)
166 to 170 | Cc1[nH]c([N+](=O)[O-])c(C)c1-c1ccnc(Nc2ccc(F)cc2)n1
44 to 45 | CCC1C(=O)Oc2c(Oc3ccccc3C)cccc21 (stereo not drawn)
129 to 130 | COc1cccc(C(F)(F)F)c1C(=O)O
108 to 109 | CCCCC(c1cc(F)ccc1F)S(=O)c1ccc(Cl)cc1 (stereo not drawn)

melting point [°C] | SMILES
120 to 121 | O=C1NCC(Cc2ccc(F)cc2)O1 (stereo not drawn)
112 to 113 | Oc1ccc(Cc2ccccc2)c2cccnc12
174 to 175 | O=C(O)c1ccccc1OCCN1CCC(c2cn(Cc3ccco3)c3cc(F)ccc23)CC1
62 to 63 | CCOc1ccc(CCCCC=CC(=O)O)cc1
167 to 169 | CN1CC(CO)Cc2ccc(NC(=O)/C=C/c3ccc(C(F)(F)F)cc3)cc21 (stereo not drawn)
117 to 119 | O=C(O)c1cc2cccc(OCC3CO3)c2o1 (stereo not drawn)
220 to 221 | O=c1c2c(n(-c3ccccc3)c3ccccc13)OCC2
115 to 135 | C[C@H](NC(=O)Cc1ccccc1F)C(=O)N[C@@H]1C(=O)Nc2ccccc2O[C@@H]1c1ccccc1
292 to 294 | O=C(O)c1ccc(-c2cc3ccccc3o2)cc1
48 to 52 | O=C(Nc1nccs1)C(CC1CCCC1)c1ccc(S(=O)(=O)C(F)(F)F)cc1 (stereo not drawn)
108 to 109 | COc1ccc(C2CCCC(=O)N2c2ccc(OC)cc2)cc1 (stereo not drawn)
202 to 204 | NC(=O)NCc1cc2c(Oc3ccc(Cl)cc3)cncc2s1
82 to 83.5 | Cc1ncoc1C(=O)c1ccoc1
108 to 109 | O=C(c1ccccc1)C(O)c1ccc(F)cc1 (stereo not drawn)
393 to 395 | O=c1c2ccc(Cl)cc2[nH]c2c(=O)n(-c3ccc(O)cc3)nc(O)c12
204 | Cc1nc2n(c(=O)c1CCN1CCC(C(O)c3ccc(F)cc3)CC1)CCS2 (stereo not drawn)
148 to 150 | CN(C)C=C1Cc2c(Cl)cccc2C1=O
